For data set [1] the following is noted: PVP K29/32 and SLS 5:2:0.05, 6000 rpm. The method, then:
The mixture was milled in a NanoMill™ (Elan Drug Delivery, Inc.). Using a media load of 100% at the maximum rpm of 6000 maximized the energy input.
Further calculations were based on a bulk density of 0.61 g/ml for PolyMill™ 500 μ media (Dow Chemical) and a void volume of 40%. Since the amounts were low and mixing difficult, PVP and SLS were prepared as 20% and 5% stock solutions, respectively. The calculations for milling in a 10 mL, 18 mL, and 26 mL milling chambers are summarized in the following chart: […]

Data set [2] can be described thus: Quality of milled dispersion by photomicrography. The format is physicochemical. The procedure: Analysis of resultant particle size was via photomicrography.
[…] The composition was then milled in a 10 mL chamber of a NanoMill™.

Data set [3] can be described thus: Particle size of nanoparticle suspension after small scale high energy milling (microscopy, laser light diffraction). The format is physicochemical.
[4] abbreviates: 10 mL chamber, 25 mg naproxen, after 1 hr.

Each structure is given as a SMILES string. Like-named read-outs stand apart in the source and are kept apart here.

Turning to `COc1ccc2cc([C@H](C)C(=O)O)ccc2c1` [Naproxen], the “mean particle size (bimodal peak)” value in data set [1] (setting [4]) is on record as 1496 nm. For the same molecule, in data set [1] (setting [4]), the “median particle size (bimodal peak)” value stood at 354 nm. Besides, the “single peak mean particle size” value is 314 nm in data set [1] (18 mL chamber, 45 mg naproxen) and 630 nm in data set [1] (26 mL chamber, 65 mg naproxen). Besides, the dispersion quality entry in data set [2] (5 mg, 10 mL chamber, PVP K29/32 and SLS 5:2:0.05) is “well dispersed nano-suspension”; in data set [2] (25 mg, 10 mL chamber, 15 min), “reasonable naproxen dispersion”; in data set [2] (25 mg, 18 mL chamber, 15 min) it was “reasonable naproxen dispersion”; in data set [2] (25 mg, 18 mL chamber, 30 min), “over-milled and aggregated”; in data set [2] (25 mg, 26 mL chamber, 5 min), “excellent homogeneity”; in data set [2] (25 mg, 26 mL chamber, 15 min) it was “clearly degenerating”. For the same molecule, the “Particle Size” value in data set [3] (50 mg milled, 15 min milling time) was 159 nm; in data set [3] (200 mg milled, 60 min milling time), 147 nm. The “mean diameter of nanoparticle suspension” value in data set [3] (<50 mg of drug milled 15 min, small-volume high energy mill, unimodal distribution) is given as “less than 200 nm”.
Regarding `CCOC(=O)CCCCCOC(=O)c1c(I)c(NC(C)=O)c(I)c(NC(C)=O)c1I` [Photogen, 6-ethoxy-6-oxohexyl-3,5-bis(acetamido)-2,4,6-triiodobenzoate], the resultant particle size in data set [2] (10 mg, Pluronic F-108 at 5:2, 10 mL chamber, 5 to 30 min) is given as “predominantly sub-micron”.

Values taken from patent US20030087308A1, “Method for high through put screening using a small scale mill or microfluidics” (Elan Pharma International Limited, priority 2001, published 2003).
